# Results from patent US6046218A, “Pyridine derivative and medicament containing the same as an effective ingredient” (SS Pharmaceutical Co., Ltd., priority 1996, dated 2000).
# Counter-ions that a name gives are not always drawn.
# Tested on: IL-5 production
# Assay: Test 3: inhibition of IL-5 production in human PBMC stimulated with ConA
# Format: cell-based
# Details: 10^-6 M, 10 μg/ml ConA, 48 hours, read-out: Inhibition rate of IL-5 production
# Experimental: Test 3: Test on the inhibition of IL-5 production
# The peripheral blood was collected from a normal volunteer and peripheral blood mononuclear cells (PBMC) of the human peripheral blood were separated therefrom by the specific gravity centrifugation method. They were suspended in an AIM-V medium and their cell count was adjusted. To individual wells of a 96-well incubation plate, 1×10^6 cells/ml of PBMC were poured, followed by the addition of a stimulator (10 μg/ml of ConA) and a medicament. The resulting mixture was incubated in 5% CO2 at 37° C. for 48 hours. After incubation, 50 μl of the supernatant were collected and subjected to measurement by a human IL-5 EIA kit (BIO SOURCE, INC.). The inhibition rate was calculated according to the following formula. [formula]
row,SMILES,inhibition at 1 µM [%]
1,"COc1cnc(/C=C/C(=O)C2CCCCC2)cc1O [Ex. 75, 2-(3-Cyclohexyl-3-oxo-1-propenyl)-4-hydroxy-5-methoxypyridine hydrochloride]",90.6
2,"COC(=O)CCCOc1cnc(/C=C/C(O)C2CCCC2)cc1OC (stereo not drawn) [Ex. 32, Methyl 4-[2-(3-cyclopentyl-3-hydroxy-1-propenyl)-4-methoxy-5-pyridyloxy]butanoate]",80.7
3,"CCOC(=O)CCCCCOc1cnc(/C=C/C(=O)c2ccccc2)cc1OC [Ex. 83, Ethyl 6-[4-methoxy-6-(3-oxo-3-phenyl-1-propenyl)-3-pyridyloxy]hexanoate]",96.2
4,"COc1cnc(/C=C/C(O)c2ccccc2)cc1OCCCC(=O)O (stereo not drawn) [Ex. 34, 4-[2-(3-Hydroxy-3-phenyl-1-propenyl)-5-methoxy-4-pyridyloxy]butanoic acid]",61
5,"COc1cnc(/C=C/C(=O)c2cc(OC)c(OC)c(OC)c2)cc1O [Ex. 61, 4-Hydroxy-5-methoxy-2-[3-oxo-3-(3,4,5-trimethoxyphenyl)-1-propenyl]pyridinehydrochloride]",79.4
6,"COC(=O)CCCOc1cc(/C=C/C(O)c2ccccc2)ncc1OC (stereo not drawn) [Ex. 29, Methyl 4-[2-(3-hydroxy-3-phenyl-1-propenyl)-5-methoxy-4-pyridyloxy]butanoate]",99.8
7,"Oc1cnc(/C=C/C(O)c2ccccc2)cc1O (stereo not drawn) [Ex. 25, 4,5-Dihydroxy-2-(3-hydroxy-3-phenyl-1-propenyl)pyridine]",97.5
8,"CCOC(=O)CCCCOc1cc(/C=C/C(=O)c2cc(OC)ccc2OC)ncc1OC [Ex. 89, Ethyl 5-[5-methoxy-2-(3-(2,5-dimethoxyphenyl)-3-oxo-1-propenyl)-4-pyridyloxy]pentanoate]",82.1
9,"COc1cnc(/C=C/C(=O)c2cccnc2)cc1OC [Ex. 67, 4,5-Dimethoxy-2-[3-oxo-3-(3-pyridyl)-1-propenyl]pyridine]",77.9
10,"COc1cnc(/C=C/C(=O)N2CCCC2)cc1OC [Ex. 108, 4,5-Dimethoxy-2-(3-oxo-3-pyrrolidino-1-propenyl)pyridine hydrochloride]",78.5
11,"COc1ccc(C(=O)/C=C/c2cc(OC)c(OC)cn2)cc1 [Ex. 50, 4,5-Dimethoxy-2-[3-(4-methoxyphenyl)-3-oxo-1-propenyl]pyridine]",79.4
12,"COc1cnc(/C=C/C(=O)c2ccccn2)cc1OC [Ex. 66, 4,5-dimethoxy-2-[3-oxo-3-(2-pyridyl)-1-propenyl]pyridine]",70.1
13,"CCOC(=O)CCCOc1cc(/C=C/C(=O)C2CCCC2)ncc1OC [Ex. 79, Ethyl 4-[2-(3-cyclopentyl-3-oxo-1-propenyl)-5-methoxy-4-pyridyloxy]butanoate hyd rochloride]",64.1
14,"COc1cnc(/C=C/C(=O)N2CCCCC2)cc1OC1CCCC1 [Ex. 111, 4-Cyclopentyloxy-5-methoxy-2-(3-oxo-3-piperidino-1-propenyl)pyridine hydrochloride]",73.2
15,"COc1cnc(/C=C/C(=O)c2ccco2)cc1OC [Ex. 62, 4,5-Dimethoxy-2-[3-(2-furyl)-3-oxo-1-propenyl]pyridine]",72.3
16,"COc1cnc(/C=C/C(=O)c2ccccc2)cc1OCCCCCC(=O)O [Ex. 103, 6-[5-Methoxy-2-(3-oxo-3-phenyl-1-propenyl)-4-pyridyloxy]hexanoic acid]",72.4
17,"COc1cnc(/C=C/C(=O)c2ccsc2)cc1OC [Ex. 64, 4,5-Dimethoxy-2-[3-oxo-3-(3-thienyl)-1-propenyl]pyridine]",82.1
18,"CCOc1cnc(/C=C/C(=O)c2ccccc2)cc1O [Ex. 55, 5-Ethoxy-4-hydroxy-2-(^3-oxo-3-phenyl-1-propenyl]pyridine]",97.5
19,"COc1cnc(/C=C/C(=O)c2ccc(OC)c(OC)c2)cc1O [Ex. 58, 4-Hydroxy-5-methoxy-2-[3-(3,4-dimethoxyphenyl)-3-oxo-1-propenyl]pyridine hydrochloride]",91.3
20,COc1cnc(/C=C/C(=O)c2ccccc2OC)cc1OC [Ex. 49],65
21,"COc1ccc(C(=O)/C=C/c2cc(O)c(OC)cn2)c(OC)c1 [Ex. 59, 4-Hydroxy-5-methoxy-2-[3-(2,4-dimethoxyphenyl)-3-oxo-1-propenyl]pyridine]",78.9
22,"CCCCCC(O)/C=C/c1cc(OC)c(OCCCCC(=O)O)cn1 (stereo not drawn) [Ex. 41, 5-[2-(3-Hydroxy-1-octenyl)-4-methoxy-5-pyridyloxy]pentanoic acid hydrochloride]",91
23,"CCOC(=O)CCCOc1cc(/C=C/C(=O)C2CCC2)ncc1OC [Ex. 80, Ethyl 4-[2-(3-cyclobutyl-3-oxo-1-propenyl)-5-methoxy-4-pyridyloxy]butanoatehydrochloride]",69.2

row,SMILES,inhibition at 1 µM [%]
1,"COc1cnc(/C=C/C(=O)c2cccs2)cc1OC [Ex. 63, 4,5-Dimethoxy-2-[3-oxo-3-(2-thienyl)-1-propenyl]pyridine]",81
2,"COc1cnc(/C=C/C(=O)N2CCCCC2)cc1OC [Ex. 107, 4,5-dimethoxy-2-(3-oxo-3-piperidino-1-propenyl)pyridine hydrochloride]",71.9
3,"COc1cnc(/C=C/C(=O)c2ccsc2)cc1O [Ex. 65, 4-Hydroxy-5-methoxy-2-[3-oxo-3-(3-thienyl)-1-propenyl]pyridine]",77.2
4,"CCOC(=O)CCCOc1cc(/C=C/C(=O)c2ccccc2)ncc1OCC [Ex. 84, Ethyl 4-[5-ethoxy-2-(3-oxo-3-phenyl-1-propenyl)-4-pyridyloxy]butanoate hydrochloride]",89.4
5,"CCCCCC(O)/C=C/c1cc(OCCCC(=O)O)c(OC)cn1 (stereo not drawn) [Ex. 40, 4-[2-(3-Hydroxy-1-octenyl)-5-methoxy-4-pyridyloxy]butanoic acid hydrochloride]",97.5
6,"COc1cnc(/C=C/C(=O)c2cc(OC)c(OC)c(OC)c2)cc1OCCCCCCO [Ex. 102, 6-[5-Methoxy-2-(3-oxo-3-(3,4,5-trimethoxyphenyl)-1-propenyl)-4-pyridyloxy]hexyl alcohol hydrochloride]",97.3
7,"CCCCCC(=O)/C=C/c1cc(OCCCCCC(=O)OCC)c(OCc2ccccc2)cn1 [Ex. 14, Ethyl 6-[5-benzyloxy-2-(3-oxo-1-octenyl)-4-pyridyloxy]hexanoate]",90.2
8,"CCOC(=O)COc1cnc(/C=C/C(=O)c2ccccc2)cc1OC [Ex. 81, Ethyl [4-methoxy-6-(3-oxo-3-phenyl-1-propenyl)-3-pyridyloxy]acetate]",72.7
9,"COc1cnc(/C=C/C(=O)c2ccncc2)cc1OC [Ex. 68, 4,5-Dimethoxy-2-[3-oxo-3-(4-pyridyl)-1-propenyl]pyridine]",95.4
10,"CCCCCC(O)/C=C/c1cc(OCCCC(=O)O)c(O)cn1 (stereo not drawn) [Ex. 39, 4-[5-Hydroxy-2-(3-hydroxy-1-octenyl)-4-pyridyloxy]butanoic acid hydrochloride]",97.6
11,"COC(=O)CCCCCOc1cc(/C=C/C(=O)c2ccccc2)ncc1OC [Ex. 42, methyl 6-[5-methoxy-2-(3-oxo-3-phenyl-1-propenyl)-4-pyridyloxy]hexanoate]",77.5
12,"COc1cc(/C=C/C(O)C2CCCC2)ncc1OCCCC(=O)O (stereo not drawn) [Ex. 37, 4-[2-(3-Cyclopentyl-3-hydroxy-1-propenyl)-4-methoxy-5-pyridyloxy]butanoic acid hydrochloride]",72.6
13,"CCOC(=O)CCCOc1cc(/C=C/C(=O)c2ccccc2OC)ncc1OC [Ex. 93, Ethyl 4-[5-methoxy-2-(3-(2-methoxyphenyl)-3-oxo-7-propenyl)-4-pyridyloxy]butanoate hydrochloride]",66
14,"COc1cnc(/C=C/C(=O)c2ccccc2OC)cc1O [Ex. 60, 4-Hydroxy-5-methoxy-2-[3-(2-methoxyphenyl)-3-oxo-1-propenyl]pyridine]",91.4
15,"COc1cnc(/C=C/C(=O)N2CCCCCC2)cc1OC [Ex. 109, 4,5-Dimethoxy-2-[3-(1-azepanyl)-3-oxo-1-propenyl]pyridine hydrochloride]",83.8
16,"CCOc1cnc(/C=C/C(=O)c2ccccc2)cc1OCCCC(=O)O [Ex. 104, 4-[5-Ethoxy-2-(3-oxo-3-phenyl-1-propenyl)-4-pyridyloxy]butanoic acid hydrochloride]",89.3
17,"COC(=O)CCCOc1cnc(/C=C/C(O)c2ccccc2)cc1OC (stereo not drawn) [Ex. 28, Methyl 4-[2-(3-hydroxy-3-phenyl-1-propenyl)-4-methoxy-5-pyridyloxy]butanoate]",72.1
18,"CCOC(=O)CCCCCOc1cc(/C=C/C(=O)c2ccccn2)ncc1OC [Ex. 69, Ethyl 6-[5-methoxy-2-(3-oxo-3-(2-pyridyl)-1-propenyl]-4-pyridyloxy]hexanoate]",73.1
19,"CCOC(=O)CCCCCOc1cc(/C=C/C(O)c2ccccc2)ncc1OC (stereo not drawn) [Ex. 27, Ethyl 6-[2-(3-hydroxy-3-phenyl-1-propenyl)-5-methoxy-4-pyridyloxy]hexanoate]",89.6
20,"CCOC(=O)CCCCCOc1cc(/C=C/C(=O)c2cc(OC)c(OC)c(OC)c2)ncc1OC [Ex. 101, Ethyl 6-[5-methoxy-2-(3-oxo-3-(3,4,5-trimethoxyphenyl)-1-propenyl)-4-pyridyloxy]hexanoate hydrochloride]",95.6
21,"COC(=O)CCCCCOc1cc(/C=C/C(O)c2ccccc2)ncc1OC (stereo not drawn) [Ex. 26, Methyl 6-[2-(3-hydroxy-3-phenyl-1-propenyl)-5-methoxy-4-pyridyloxy]hexanoate]",83.7
22,"CCOC(=O)CCCOc1cnc(/C=C/C(=O)c2ccccc2)cc1OC [Ex. 82, Ethyl 4-[4-methoxy-6-(3-oxo-3-phenyl-1-propenyl)-3-pyridyloxy]butanoate]",69.6
